Values joined by “and” are separate entries in the source; they are usually repeats but may differ in a detail not shown here. Equal values may be shown once.
What was measured:
[1] = system: neovascularisation; assay: Mouse anti-angiogenesis assay (bFGF sponge implant); type: in vivo; conditions: for neovascularisation in mice (percent inhibition): Days 3-9
Description: NMRI female mice (SPF Bom:NMRI) weighing 25-27 g were obtained from M&B, Ejby, Lille Skensved, Denmark. They were housed in a facility where light was controlled on a 12 hour light-dark cycle. […] The animals were fed a pelleted rodent diet (Altromin 1324, Brogarden, Denmark) ad libitum and had free access to tap water. All animals were observed daily for clinical signs.
Slow-release pellets containing 400 ng of human basic fibroblast growth factor (Innovative Research of America, Florida, USA) were circular and with a diameter of 1.5 mm. The angiogenic peptide was guarantied by the supplier to be released over a period of 10 days.
The mice were anaesthetized using inhalation anaesthesia (halothane/N2O and oxygen). The skin of the back was shaved using an electric shaver and the skin was disinfected using 70% ethanol. A 5 mm incision was made transversely in close proximity to the shoulder blades and a 2 cm pocket reaching caudally to the pelvic region was created by blunt dissection, carefully separating the skin from the fascie. A polyurethane sponge with the dimension of 8×5×3 mm containing a slow-release pellet of 400 ng bFGF was placed at the caudal end of the pocket and the incision was closed by a single or double invert suture using Perma-Hand Seide 4/0 (Johnson & Johnson, Brussels, Belgium). The animals were treated by an analgesic subcutaneous injection of carprofen 2 mg/kg.
The angiogenic response was quantitated as previously described (Lichtenberg et al., 1997, 1999 & 2002). Briefly, twenty minutes before euthanasia 1 μCi of ^125I-labelled immuno-globulin (Amersham, UK) in 50 μl of 0.9% NaCl was injected intravenously into a tail vein. The animals were euthanised by O2/CO2 asphyxiation and the skin overlying the sponge implant was removed. The sponge implant with the pellet was placed in a plastic vial containing 4% formalin and the ^125I-activity was measured in a γ-counter. Differences in angiogenic response measured as ^125I-activity in cpm were assessed by Student's t-test, grouped data, with P<0.05 regarded as statistically significant. Data was expressed as means±SEM.
Three separate experiments were conducted: Two experiments were performed with Compound a and one experiment was performed with Compound b. In the first two experiments with Compound a, 3 groups each comprising 5 animals was treated orally with Compound a at the dose levels of 0 (saline), 5 and 10 mg/kg/day (experiment 1) and with 20 and 40 mg/kg/day (experiment 2). In the third experiment, 3 groups each comprising 6 animals was treated orally with the vehicle (saline) and 80 mg/kg/day of Compound a. In all experiments the animals were treated from Days 3-9 and killed at day 10.

[2] = system: B16/F10 melanoma cells; assay: Mouse metastasis assay; type: in vivo, mice; conditions: for Colony Count (B16 melanoma lung colonies): day 14, mean ± SEM; for % Reduction of melanoma lung colonies vs vehicle: C57BL/6 mice
Excerpt: Female C57BL/6 mice were supplied and delivered by Charles River UK Ltd. The animals were approximately 6 weeks of age at the start of the study. The body weights at the start of dosing were in the range 10-21 g. The mice were housed in solid-bottomed plastic cages, containing wood shavings, in groups of up to 10. During acclimatization, the rooms and cages were cleaned at regular intervals to maintain hygiene. The mice were fed an expanded rodent diet ad libitum and allowed free access to mains tap water. […] (McKay, 2002).
Data was expressed as means±SEM and analysed using appropriate statistical methods. Statistical significance was assumed when P<0.05.
Two separate studies were conducted: One was performed with Compound a (experiment 1) and one with Compound b (experiment 2). In each study there were 4 treatment groups. The treatment groups were as follows:
Treatments for groups 24 were administered orally, by gavage. The dose volume used was 20 ml/kg for groups 2 and 4 and 15 ml/kg for group 3.
C57BU6 mice were injected intravenously, via a tail vein, with 0.1 ml of a suspension of B16/F10 melanoma cells (approximately 3×10^5 cells/mouse) on day 0. With the exception of the untreated group, animals were dosed orally, by gavage, or intravenously, according to their allocated treatment group once daily, from day −2 to day 10 (13 administrations). The animals were killed on day 14 (14 days after injection of the tumour cells). The lungs from each animal were removed and weighed prior to fixing in Bouin's solution.

[3] = system: HUVEC, fibroblasts, Mel 57 and T47D cells; assay: Cell-specificity assay: incorporation of [3H]thymidine; type: cell-based; conditions: bFGF-induced HUVEC and fibroblast proliferation vs NBCS-induced Mel 57 and T47D proliferation; FIG. 1
Description: Cell-Specificity Assay: Incorporation of [^3H]Thymidine
Confluent cultures of HUVEC, fibroblasts, Mel 57 and T47D cells were detached by trypsin/EDTA solution, and allowed to adhere and spread at an appropriate cell density on gelatine-coated dishes in M199-HEPES medium or DMEM-HEPES medium both supplemented with 10% heat-inactivated new born calve serum (NBCS) and penidillin/streptomycin. After 18 h the HUVEC and fibroblasts were stimulated with 2.5 ng/ml FGF-2 in M199-HEPES, penicillin/streptomycin, 10% NBCS and 0.1% DMSO in duplicate wells, with or without the test compounds. […] Subsequently, the cells were washed with PBS, [3H]-labelled DNA were fixed with methanol, and precipitated in 5% trichloroacetic-acid, and finally dissolved in 0.5 ml 0.3 M NaOH and counted in a liquid scintillation counter.
All outcome measures were measured in singular, i.e. one measurement per culture well. The proliferation of HUVEC, fibroblast, Mel 57, and T47D tumor cells was expressed as mean±range [3H]-thymidine incorporation (dpm) of duplicate wells.
The percentage of inhibition of FGF-2-induced HUVEC and fibroblast proliferation by the compounds was calculated as follows: [formula] […] The percentage of inhibition of the Mel 57 and T47D tumor cell proliferation by the compounds will be calculated as follows: [formula] […]

[4] = system: HUVEC; assay: Cell morphology and proliferation assay; type: cell-based
Description: Cell Morphology and Proliferation Assay
One week before the assay, a vial with HUVEC (passage 1) was thawed and cultured (after a split ratio of 1:3) to confluence (passage 2). The confluent culture of HUVEC was detached by trypsin/EDTA solution, and allowed to adhere and spread at cell density of 10, 50 and 100% confluency on gelatine-coated dishes in M199-HEPES medium supplemented with 10% heat-inactivated NBCS, 10% human serum and penicillin/streptomycin. After 18 h the HUVEC were preincubated with the test compounds for 4 hours. Then the HUVEC were washed and restimulated in the absence or presence of the test compounds and the reference compounds with 2.5 ng/ml FGF-2 in M199-HEPES, penicillin/streptomycin, 10% NBCS, 10% human serum and 0.1% DMSO in triplicate wells for 5 (10% confluency) or 3 days (50 and 100% confluency), with or without the test compounds. The cell number was determined by image analysis (P. Koolwijk, 2001)
To investigate the mode of action of the compound on proliferating and non-proliferating HUVEC, experiments were performed on 10%, 50% and 100% confluent monolayers of HUVEC. The 10% and 50% confluent HUVEC monolayers represent the status of angiogenic endothelial cells able to proliferate and migrate when stimulated. The 100% HUVEC monolayers represent the quiescent character of the endothelial cells in the existing blood vessel. The 4-hour preincubation experiments were performed to be able to discriminate between general toxicity and the induction of apoptosis.

[5] = 60 mg/kg p.o. once daily day -2 to day 10, C57BL/6 mice
[6] = 80 mg/kg p.o. once daily day -2 to day 10, C57BL/6 mice

SMILES: O=C(Nc1cc(C(F)(F)F)cc(C(F)(F)F)c1)Nc1ccc(Br)cc1-c1nnn[nH]1 [Compound b, N-3,5-Di(trifluoromethyl)phenyl-N′-[4-bromo-2-(1-H-tetrazol-5-yl)phenyl]urea]
- tolerability (signs of toxicity, body weight gain) ([1]; mice, selected dose levels, oral): no signs of toxicity or changes of the body weight gain
- Colony Count (B16 melanoma lung colonies) [2, 5]: 41.55 ± 9.55
- % Reduction of melanoma lung colonies vs vehicle ([2]; 60 mg/kg p.o.): 36% and 36.45%
- Colony Count (B16 melanoma lung colonies) [2, 6]: 36.65 ± 5.82
- % Reduction of melanoma lung colonies vs vehicle ([2]; 80 mg/kg p.o.): 44% and 43.97%

SMILES: O=C(Nc1ccc([N+](=O)[O-])cc1)Nc1ccc(Br)cc1-c1nnn[nH]1 [Compound a, N-4-Nitrophenyl-N′-[4-bromo-2-(1-H-tetrazol-5-yl)phenyl]urea]
- cell-specificity of inhibition of proliferation [3]: more potent inhibitor of the bFGF-induced HUVEC and fibroblast proliferation
- neovascularisation in mice (percent inhibition) ([1]; 5 mg/kg/day orally): 15%
- neovascularisation in mice (percent inhibition) ([1]; 20 mg/kg/day orally): 28%
- No Effect Level (NOEL) ([1]; oral, neovascularisation in mice): 5 mglkg/day
- Colony Count (B16 melanoma lung colonies) [2, 5]: 64.68 ± 2.65
- % Reduction of melanoma lung colonies vs vehicle ([2]; 60 mg/kg p.o.): 17% and 17.38%
- Colony Count (B16 melanoma lung colonies) [2, 6]: 61.85 ± 2.89
- % Reduction of melanoma lung colonies vs vehicle ([2]; 80 mg/kg p.o.): 21%
- inhibition of HUVEC proliferation ([4]; 4-hour preincubation, compound then removed for the rest of the stimulation period): not able to inhibit HUVEC proliferation significantly
- cytotoxicity (HUVEC morphology, floating dead cells) ([4]; 100% confluent monolayers, culture periods with the compound): no change of HUVEC morphology and the amount of floating dead cells
- cytotoxicity (cell death, floating cells in the media) ([4]; HUVEC, 4-hour preincubation period): No signs of any cytotoxicity
- inhibition of HUVEC proliferation ([4]; continuous presence of the compound, 10% confluent monolayers): clear inhibitory effect
- inhibition of HUVEC proliferation ([4]; continuous presence of the compound, 50% confluent monolayers): slightly observed
- inhibition of HUVEC proliferation ([4]; continuous presence of the compound, 100% confluent monolayers): no effect

From patent US20060058395A1, “Compounds useful for the treatment of diseases responsive to antiangiogenetic therapy” (NEUROSEARCH A/S, priority 2002, published 2006)
